Reference: US12441988B2, “Engineered adult-like human heart tissue” (THE TRUSTEES OF COLUMBIA UNIVERSITY IN THE CITY OF NEW YORK, priority 2015, dated 2025)
“Also recorded” adds a separate entry of the source.

How the values were obtained:
Type in all cases: cell-based, human
hiPS-CM organoids [1] = experiment: Calcium handling (Fluo-4 calcium transients) in organoids and FCTs; details: for calcium transients after drug: organoids and FCTs, verapamil or 0.002 mM thapsigargin
Experimental: Calcium transients were analyzed using the Fluo-4 NW dye in RPMI+B27 media containing 5 μM blebbistatin to reduce movement artifacts, for 30 minutes at 37° C. Videos were acquired at a rate of 150 frames per second using a Pike F-032 camera controlled by the custom-designed, free-source SPLASSH software. Videos were analyzed in MATLAB using a custom script that calculated the temporal changes in calcium fluorescence intensity. Each frame was normalized to a baseline background region to give baseline corrected changes in minimum and maximum fluorescence values for each frame. This temporal change in fluorescence intensity was presented as a calcium transient trace. The calcium transient timing was determined as the peak-to-peak value of two successive beats as defined by the peak maxima. Calcium transient amplitude was determined by numerically integrating the area below the peak maxima relative to the baseline. […] The average rhythmicity was defined as the ratio of the parameter standard deviation to the parameter mean of the corresponding (control, constant, intensity) tissue group. Beats with parameter measurements falling outside two standard deviations from the average rhythmicity were classified as irregular.
(§1) Tissues (organoids and FCTs) within culture platforms were loaded with Fluo-4 NW (50% v/v, Life Technologies) in RPMI+B27 media containing 5 μM blebbistatin (Sigma) to reduce movement artifacts, for 30 minutes at 37° C. Videos were acquired at a rate of 150 frames per second using a Pike F-032 camera (Allied Vision Technologies) controlled by the custom designed, free-source SPLASSH software. Videos were analyzed in MATLAB using a custom script that calculated the temporal changes in calcium fluorescence intensity. Specifically, each frame was normalized to a baseline background region to give baseline-corrected changes in minimum and maximum fluorescence values for each frame. This temporal change in fluorescence intensity was presented as a calcium transient trace from which measurements were obtained.
(§2) Calcium transients were analyzed to measure the irregularity of various parameters as previously described. Briefly, the calcium transient “timing” was determined as the peak-to peak value of two successive beats as defined by the peak maxima. Calcium transient “amplitude” was determined by numerically integrating the area below the peak maxima relative to the baseline. […] The average rhythmicity was defined as the ratio of the parameter standard deviation to the parameter mean of the corresponding (control, constant, intensity) tissue group. Beats with parameter measurements falling outside two standard deviations from the average rhythmicity were classified as irregular.

TS organoids [2] = experiment: Timothy Syndrome disease model, calcium transients and EADs
Experimental: Timothy Syndrome hiPSCs were generated and differentiated into CMs as previously described. Briefly, fibroblasts were isolated from patients with Timothy Syndrome (TS line) and a control healthy fibroblast line (#3, IMR90 cell line) and transduced by lipofection using established episomal vectors. […] 2 μM IWP-3 (Wnt inhibitor, #SML0533, Lot #102m4613V, Sigma-Aldrich) was added for days 5-11, in DF20 for days 5-7 and DF5 for day 7 onwards.
as §1, §2

hiPS-CM organoids [3] = experiment: Dose response curves of drugs in engineered cardiac tissue (beat frequency, force, EC50); details: for beat frequency (BPM): engineered cardiac micro-tissue, increasing drug concentrations
Experimental: Tissue contractility was measured by tracking the change in the projected tissue area as a function of time. Live cell, bright field videos were acquired at rates of 150 frames per second using a Pike F-032b (Allied Vision Technologies) camera controlled with the custom […] software. Acquired video frames were inverted and an automated intensity threshold was used to identify cell location in the video frame. First, a baseline time point in the video corresponding to a relaxed tissue state was selected. Absolute differences in cell area from the baseline frame were then calculated to create a time course of cell area dynamics as a function of time. The resulting time courses were analyzed with a native MATLAB automated peak finding algorithm to determine locations of maximum cell contraction indicated by the locations of local maxima in the time courses. Beat period lengths were determined from the length of time between pairs of local maxima. Beat frequencies were determined by inverting beat periods. Contraction amplitude relaxation times were measured from the length of time required for the time course to relax in amplitude from the peak contraction amplitude of the local maxima to the calculated relaxation amplitude (e.g. the […] time was the length of time elapsed from the local maxima until the contraction time course reached 10% of the local maximum contraction difference amplitude). Drugs were diluted in standard media (RPMI+B27). […] Tissue videos were captured≥5 minutes after each dose was administered, and processed using custom image processing software as discussed above. For chronotropic drugs, bright field videos were taken at each drug concentration so that measurements of the beat frequency could be determined as a function of drug concentration. For ionotropic drugs, tissues were placed in the organ bath and force measurements were recorded as previously described at each drug concentration so that the measurements of the change in force generated could be determined as a function of drug concentration. Dose-response curves for these parameters could be constructed by using Matlab to fit the Hill Equation for sigmoid curves to the data, to determine the corresponding EC50 value.

hiPS-CM organoids [4] = experiment: Force measurements (twitch tension, organ bath); details: intensity-trained organoids versus other organoids and FCTs
TS organoids [5] = experiment: Timothy Syndrome disease model, force generation in response to extracellular calcium; details: Ca2+ overload with decreased force

## C/C=C(/C)C(=O)O[C@H]1C(C)=C2[C@H]([C@@H]1OC(=O)CCCCCCC)[C@@](C)(OC(C)=O)C[C@H](OC(=O)CCC)[C@@]1(O)[C@H]2OC(=O)[C@@]1(C)O [thapsigargin]
hiPS-CM organoids [1]
  calcium transients after drug: calcium transients ceased quickly in intensity-trained organoids

## COc1ccc(CCN(C)CCCC(C#N)(c2ccc(OC)c(OC)c2)C(C)C)cc1OC (stereo not drawn) [verapamil]
hiPS-CM organoids [1]
  calcium transients after drug: cessation of calcium transients in all tissues; also recorded: cessation of Ca2+ transients
TS organoids [2]; therapeutic concentrations
  rescue of the TS phenotype: rescued the phenotype

## Cn1c(=O)c2c(ncn2C)n(C)c1=O [caffeine]
TS organoids [2]
  release of Ca2+ by caffeine after nifedipine: released Ca2+ back into the cytosol

## CNC[C@H](O)c1ccc(O)c(O)c1 [epinephrine]
TS organoids [2]
  incidence of EADs: increased incidence of EADs

## ryanodine
hiPS-CM organoids [1]; 1 μmol/L, early-stage versus late-stage intensity trained organoids
  response to ryanodine: intensity trained early-stage but not late-stage organoids respond

## COc1cc(N)c(Cl)cc1C(=O)NC1CCN(CCCOc2ccc(F)cc2)CC1OC (stereo not drawn) [cisapride]
hiPS-CM organoids [1]; female cardiac organoids, 1 μM
  proarrhythmic Early After Depolarizations: increased proarrythmic Early After Depolarizations
hiPS-CM organoids [1]; intensity-trained organoids, increasing concentrations
  intracellular calcium transients, early after-depolarizations (EADs): prolonged
hiPS-CM organoids [1]; other (not intensity-trained) organoids and FCTs
  proarrhythmic tendencies: did not recapitulate proarrythmic tendencies
TS organoids [2]
  incidence of EADs: increased incidence of EADs
hiPS-CM organoids [3]
  beat frequency (BPM): opposite effect

## CC(C)NCC(O)c1ccc(O)c(O)c1 (stereo not drawn) [isoproterenol]
TS organoids [2]
  calcium transients, QT intervals, EADs under β-adrenergic stimulation: increased calcium transients, prolonged QT intervals, and led to proarrhythmic EADs
hiPS-CM organoids [4]
  twitch tension: responded by increasing twitch tension
hiPS-CM organoids [4]; listed as Isoprenaline
  twitch tension: significantly increased their twitch tension
hiPS-CM organoids [3]
  beat frequency (BPM): increases with increasing concentrations
hiPS-CM organoids [3]; intensity-trained organoids
  ionotropic, lusitropic and chronotropic responses: positive ionotropic (FIG. 23A), lusitropic (FIG. 23B), and chronotropic (FIG. 23C) responses; also recorded: dose-dependent effect on three functional properties

## O=C1c2c(O)ccc(O)c2C(=O)c2c(NCCNCCO)ccc(NCCNCCO)c21 [mitoxantrone]
hiPS-CM organoids [3]
  beat frequency (BPM): opposite effect

## CC(C)NCC(O)COc1cccc2ccccc12 (stereo not drawn) [propranolol]
TS organoids [5]
  force generation in response to extracellular calcium: reversed some of these effects
